Consider five compounds from patent publication US20230072421A1, “TARGETED RADIOPHARMACEUTICALS FOR THE DIAGNOSIS AND TREATMENT OF PROSTATE CANCER” (Bayer AS, priority 2019, published 2023).

Experiment [1] deals with VCaP cells. The experiment in a line: Cell proliferation assay (CellTiter-Glo, 5-day exposure), VCaP. The format is cell-based. As to conditions: 4000 cells/well, Th-227 labelled at 375 kBq/nmol, mean of 1 to 6 experiments. A digest of the protocol:
(§1)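 Thorium-227-labelled PSMA small-molecule ligands were tested on prostate cancer lines seeded at 4000 cells/well (VCaP) or 1000 cells/well (22Rv1, C4-2, LNCaP) and incubated overnight at 37 °C, 5% CO2. Viability was read by CellTiter-Glo luminescence at treatment start (sister plates) and after 5-day compound exposure.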
On the technique in general: ATP-based viability assays read luminescence as a measure of living cells.

The subject of experiment [2] is C4-2 cells. The experiment in a line: Cell proliferation assay (CellTiter-Glo, 5-day exposure), C4-2. The format is cell-based. To be noted: C4-2, 1000 cells/well, Th-227 labelled at 375 kBq/nmol, mean of 1 to 6 experiments. A digest of the protocol: as §1
Experiment [3] relates to 22Rv1 cells. The experiment in a line: Cell proliferation assay (CellTiter-Glo, 5-day exposure), 22Rv1. It counts as cell-based. As to conditions: 22Rv1, 1000 cells/well, Th-227 labelled at 375 kBq/nmol, mean of 1 to 6 experiments. A digest of the protocol:
as §1

Experiment [4] concerns LNCaP cells. The experiment in a line: Cell proliferation assay (CellTiter-Glo, 5-day exposure), LNCaP. It counts as cell-based, human. As to conditions: LNCaP, 1000 cells/well; Th-227 labelled at 375 kBq/nmol; 5-day exposure; mean of 1 to 6 experiments. A digest of the protocol:
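Triplicate serial dilutions; 375 kBq/nmol Th-227 label; radiochemical purity above 70% unless flagged (50–70%). Overnight attachment precedes dosing, and CTG luminescence is read at d0 and d5.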

The target of experiment [5] is T1, PSMA-expressing LNCaP cells (Homo sapiens, UniProt Q04609).
T1 construct: PSMA-expressing LNCaP cells; endogenous in cells; host or cells: LNCaP
The experiment in a line: Internalization assay (membrane bound and internalized Th-227). It counts as cell-based. To be noted: 10 nM radiolabeled compound, Th-227 at 375 kBq/nmol, triplicates; for Internalized in LNCaP fmol/10^6 cells 30 min / Membrane bound in LNCaP fmol/10^6 cells 30 min: 30 min incubation; for Internalized in LNCaP fmol/10^6 cells 2 h / Membrane bound in LNCaP fmol/10^6 cells 2 h: 2 h incubation. As to the method:
For internalization assays 24 well plates (#3526, Corning) were coated with 200 μl Poly-L-Lysine (0.1 mg/ml, #3438-100-01, Fa. Cultrex) per well for 2 h at 37° C. […] Cells were incubated at 37° C. and 5% CO2 over night. On the following day 400 μl of the media were removed and a total of 200 μl growth medium added supplemented with PSMA-SMOLs labeled with Th-227 at 375 kBq/nmol in triplicates. Radiochemical purity of the labeling was analyzed by instant thin layer chromatography and found to be above 70% for all compounds used. The final concentration of radiolabeled SMOLs was in the test wells was 10 nM. Cells were incubated for 30 min or 2 h. After the incubation time supernatants were taken off and cells washed with PBS. Thereafter cells were washed twice with 0.2 ml 50 mM Glycine-HCl buffer (#55097, Sigma Aldrich) and once with PBS and the washing solutions combined in counting vials (#TK75-018, Fa. Corning) and subjected to gamma counting (1470 Wizard automatic gamma counter, Wallac). The resulting counts were attributed to membrane bound radioactivity. Cells were then lysed with 500 μl 0.3N NaOH (#181691.1211, Fa. PanReac AppliChem ITW Reagents) followed by another wash with 500 μl PBS. The NaOH lysate as well as the final wash were combined in vials and subjected to gamma counting as described above. Measured radioactivity was attributed to internalized fraction. Results were calculated as fmol of Th-227 per/10^cells in the membrane bound and internalized fractions from triplicate values.

The test system of experiment [6] is LNCaP human prostate cancer cells. The experiment in a line: LNCaP xenograft efficacy study (T/C tumor area). The format is in vivo, SCID mice. A digest of the protocol: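 SCID mice with testosterone pellet bearing s.c. flank LNCaP xenografts (5×10^6 cells in Matrigel) were treated i.v. with a defined radioactive dose once tumors reached 35-50 mm^2 (n=10/group). Tumor area (caliper, longest diameter × perpendicular) measured 2-3× weekly; T/C ratio calculated from tumor areas when vehicle group closed.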

In experiment [7] the test system is VCap, C4-2, 22Rv1 and LnCap cells. The experiment in a line: Cell proliferation assay, summary statements over several cell lines. The format is cell-based. As to the method:
Inhibition of cell proliferation of Thorium-227 labeled PMSA SMOL ligands was tested different prostate cancer cell lines, namely 22Rv1, VCaP, C4-2 (all from ATCC, Manassas, Va., USA) and LNCaP (DMSZ, Braunschweig). Cells were seeded using the following conditions in 384 well plates (Corning) in 30 μl of growth media at 4000 cells/well for VCaP cells and 1000 cells/well for 22Rv1, C4-2 and LNCaP cells.
Cells were cultivated an incubator at 37° C. and 5% C02 over night. […] In sister plates cell viability at treatment start (d=0) was determined using CellTiter-Glo® assay (CTG, Promega, Madison, Wis., USA), by adding 30 μl per well CTG solution, incubation for 10 min and reading of Luminescence in a PheraStarFSX instrument (BMG Labtech). After a 5-day exposure in the presenced of test compounds, cell viability of treated or untreated control cells was determined again using CellTiter-Glo® assay (Promega, Madison, Wis., USA). […] The DRC software is a Biobook Spreadsheet that was developed by Bayer AG and Bayer Business Services on the IDBS E-Workbook Suite platform (IDBS: ID Business Solutions Ltd., Guildford, UK).

Where [8] appears, read: Example IV, day 36 after start of therapy, once 1 MBq/kg.
Setting [9] is: Example V, day 27 after start of therapy, once 750 kBq/kg.

T1 sequence (Q04609 whole entry): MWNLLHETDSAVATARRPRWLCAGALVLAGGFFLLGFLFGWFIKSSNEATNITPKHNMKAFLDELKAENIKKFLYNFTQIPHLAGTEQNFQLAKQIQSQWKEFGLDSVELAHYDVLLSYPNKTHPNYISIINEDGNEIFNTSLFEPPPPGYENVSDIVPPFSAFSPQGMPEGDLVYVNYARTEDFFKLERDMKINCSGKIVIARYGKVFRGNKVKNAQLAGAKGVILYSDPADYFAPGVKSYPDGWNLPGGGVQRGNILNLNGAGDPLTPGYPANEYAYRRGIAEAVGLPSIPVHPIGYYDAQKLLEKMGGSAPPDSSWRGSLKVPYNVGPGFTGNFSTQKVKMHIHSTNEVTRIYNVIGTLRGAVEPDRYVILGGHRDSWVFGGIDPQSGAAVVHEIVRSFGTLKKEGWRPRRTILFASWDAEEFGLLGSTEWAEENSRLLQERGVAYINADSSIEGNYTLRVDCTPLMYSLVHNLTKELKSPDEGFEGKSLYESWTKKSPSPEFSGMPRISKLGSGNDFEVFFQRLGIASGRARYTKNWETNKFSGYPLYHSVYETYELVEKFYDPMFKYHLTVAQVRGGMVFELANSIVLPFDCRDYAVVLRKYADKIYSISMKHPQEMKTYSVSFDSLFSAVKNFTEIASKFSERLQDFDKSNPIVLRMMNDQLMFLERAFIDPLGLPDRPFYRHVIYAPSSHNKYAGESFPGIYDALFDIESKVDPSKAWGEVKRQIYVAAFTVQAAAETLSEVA

Regarding `Cc1cc2c(c(=O)n1CC(=O)O)[O][227Th]13[O]c4c(cc(C)n(CC(=O)O)c4=O)C(=O)NCCN(CCCN(CCNC2=O)CCNC(=O)c2cc(C)n(CC(=O)NCc4ccc(C(=O)N[C@@H](Cc5ccc6ccccc6n5)C(=O)NCCCC[C@H](NC(=O)N[C@@H](CCC(=O)O)C(=O)O)C(=O)O)nc4)c(=O)c2[O]1)CCNC(=O)c1cc(C)n(CC(=O)NCc2ccc(C(=O)N[C@@H](Cc4ccc5ccccc5n4)C(=O)NCCCC[C@H](NC(=O)N[C@@H](CCC(=O)O)C(=O)O)C(=O)O)nc2)c(=O)c1[O]3` [34-C dimer-227Th], in experiment [1], the “Proliferation assay on cancer cell lines by TTCs Default Pivot #3 IC50 [kBq/mL] VCap 4000cells 375kBq/nmol (mean)” value turned out to be 1.25 kBq/mL. Also, in experiment [2], the “Proliferation assay on cancer cell lines by TTCs Default Pivot #3 IC50 [kBq/mL] C4-2 1000cells 375kBq/nmol (mean)” value came out at 0.46 kBq/mL. Further, the “Proliferation assay on cancer cell lines by TTCs Default Pivot #3 IC50 [kBq/mL] 22Rv1 1000cells 375kBq/nmol (mean)” value in experiment [3] is given as 1.36 kBq/mL. Moreover, the “Proliferation assay on cancer cell lines by TTCs Default Pivot #3 IC50 [kBq/mL] LnCap 1000cells 375kBq/nmol (mean)” value in experiment [4] came out at 0.02 kBq/mL. Besides, in experiment [5], the “Internalized in LNCaP fmol/10^6 cells 30 min” value is 100 fmol/10^6 cells, the “Membrane bound in LNCaP fmol/10^6 cells 30 min” value is recorded as 79 fmol/10^6 cells, the “Internalized in LNCaP fmol/10^6 cells 2 h” value turned out to be 299 fmol/10^6 cells and the “Membrane bound in LNCaP fmol/10^6 cells 2 h” value is 185 fmol/10^6 cells. The compound also showed a T/Carea in experiment [6] (setting [8]) of 0.46. This compound also had a T/Carea in experiment [6] (setting [9]) of 0.38.

Take `Cc1cc2c(c(=O)n1CC(=O)O)[O][227Th]13[O]c4c(cc(C)n(CC(=O)O)c4=O)C(=O)NCCN(CCCN(CCNC(=O)c4cc(C)n(CC(=O)O)c(=O)c4[O]1)CCNC(=O)c1cc(C)n(CC(=O)NCc4ccc(C(=O)N[C@@H](Cc5ccc6ccccc6n5)C(=O)NCCCC[C@H](NC(=O)N[C@@H](CCC(=O)O)C(=O)O)C(=O)O)nc4)c(=O)c1[O]3)CCNC2=O` [34-C monomer-227Th]: the “Proliferation assay on cancer cell lines by TTCs Default Pivot #3 IC50 [kBq/mL] VCap 4000cells 375kBq/nmol (mean)” value in experiment [1] stood at 0.99 kBq/mL. Moreover, in experiment [2], the “Proliferation assay on cancer cell lines by TTCs Default Pivot #3 IC50 [kBq/mL] C4-2 1000cells 375kBq/nmol (mean)” value stood at 0.15 kBq/mL. Moreover, the “Proliferation assay on cancer cell lines by TTCs Default Pivot #3 IC50 [kBq/mL] 22Rv1 1000cells 375kBq/nmol (mean)” value in experiment [3] came out at 1.28 kBq/mL. For the same compound, in experiment [4], the “Proliferation assay on cancer cell lines by TTCs Default Pivot #3 IC50 [kBq/mL] LnCap 1000cells 375kBq/nmol (mean)” value is reported as 0.02 kBq/mL. Moreover, in experiment [5], the “Internalized in LNCaP fmol/10^6 cells 30 min” value was determined as 75 fmol/10^6 cells, the “Membrane bound in LNCaP fmol/10^6 cells 30 min” value was found to be 147 fmol/10^6 cells, the “Internalized in LNCaP fmol/10^6 cells 2 h” value stood at 325 fmol/10^6 cells and the “Membrane bound in LNCaP fmol/10^6 cells 2 h” value was 359 fmol/10^6 cells. Besides, the T/Carea in experiment [6] (Example I, day 27, 1 x 750 kBq/kg) was found to be 0.37. Besides, the T/Carea in experiment [6] (setting [8]) stood at 0.51. The T/Carea in experiment [6] (setting [9]) was 0.37.

For `Cc1cc2c(c(=O)n1CC(=O)O)[O][227Th]13[O]c4c(cc(C)n(CC(=O)O)c4=O)C(=O)NCCN(CCCN(CCNC(=O)c4cc(C)n(CC(=O)O)c(=O)c4[O]1)CCNC(=O)c1cc(C)n(CC(=O)NCc4ccc(C(=O)N[C@@H](Cc5ccc6ccccc6n5)C(=O)NCCCC[C@H](NC(=O)N[C@@H](CCC(=O)O)C(=O)O)C(=O)O)nc4)c(=O)c1[O]3)CCNC2=O` [34-C monomer], in experiment [7] (227Th-labelled compounds bearing the HOPO chelator Example A), the “antiproliferative activity on VCap, C4-2, 22Rv1 and LnCap cells (in words)” value is “high antiproliferative activity”. Moreover, the “antiproliferative activity on VCap and C4-2 cells (in words)” value in experiment [7] (227Th-labelled compounds, in comparison to 227Th-labelled examples 1-C monomer, dimer, trimer and tetramer) is given as “improved antiproliferative activity”.

In the case of `Cc1cc(C(=O)NCCN(CCCN(CCNC(=O)c2cc(C)n(CC(=O)NCc3ccc(C(=O)N[C@@H](Cc4ccc5ccccc5n4)C(=O)NCCCC[C@H](NC(=O)N[C@@H](CCC(=O)O)C(=O)O)C(=O)O)nc3)c(=O)c2[O-])CCNC(=O)c2cc(C)n(CC(=O)NCc3ccc(C(=O)N[C@@H](Cc4ccc5ccccc5n4)C(=O)NCCCC[C@H](NC(=O)N[C@@H](CCC(=O)O)C(=O)O)C(=O)O)nc3)c(=O)c2[O-])CCNC(=O)c2cc(C)n(CC(=O)NCc3ccc(C(=O)N[C@@H](Cc4ccc5ccccc5n4)C(=O)NCCCC[C@H](NC(=O)N[C@@H](CCC(=O)O)C(=O)O)C(=O)O)nc3)c(=O)c2[O-])c([O-])c(=O)n1CC(=O)O.[227Th+4]` [34-C trimer 227Th], the “Proliferation assay on cancer cell lines by TTCs Default Pivot #3 IC50 [kBq/mL] VCap 4000cells 375kBq/nmol (mean)” value in experiment [1] worked out at 1.1 kBq/mL. Also, the “Proliferation assay on cancer cell lines by TTCs Default Pivot #3 IC50 [kBq/mL] C4-2 1000cells 375kBq/nmol (mean)” value in experiment [2] came out at 0.28 kBq/mL. Further, in experiment [3], the “Proliferation assay on cancer cell lines by TTCs Default Pivot #3 IC50 [kBq/mL] 22Rv1 1000cells 375kBq/nmol (mean)” value is on record as 1.25 kBq/mL. For the same compound, the “Proliferation assay on cancer cell lines by TTCs Default Pivot #3 IC50 [kBq/mL] LnCap 1000cells 375kBq/nmol (mean)” value in experiment [4] worked out at 0.03 kBq/mL. Moreover, in experiment [5], the “Internalized in LNCaP fmol/10^6 cells 30 min” value is on record as 68 fmol/10^6 cells, the “Membrane bound in LNCaP fmol/10^6 cells 30 min” value turned out to be 49 fmol/10^6 cells, the “Internalized in LNCaP fmol/10^6 cells 2 h” value was found to be 162 fmol/10^6 cells and the “Membrane bound in LNCaP fmol/10^6 cells 2 h” value amounted to 93 fmol/10^6 cells. This compound also displayed a T/Carea in experiment [6] (setting [8]) of 0.41. In addition, in experiment [6] (setting [9]), the T/Carea came to 0.56.

Consider `CC1=CC2=C3[O][227Th-4]45678([O]C9=C(C=C(C)N(CC(=O)O)C9=[O+]4)C(=O)NCCN(CCCN(CCNC(=O)C4=C([O]5)C(=[O+]6)N(CC(=O)O)C(C)=C4)CCNC(=O)C4=C([O]7)C(=[O+]8)N(CC(=O)NC[C@H]5CC[C@H](C(=O)N[C@@H](Cc6ccc7ccccc7n6)C(=O)NCCCC[C@H](NC(=O)N[C@@H](CCC(=O)O)C(=O)O)C(=O)O)CC5)C(C)=C4)CCNC2=O)[O+]=C3N1CC(=O)O` [Example 17-C monomer-227Th], for which the “Proliferation assay on cancer cell lines by TTCs Default Pivot #3 IC50 [kBq/mL] VCap 4000cells 375kBq/nmol (mean)” value in experiment [1] is 1.48 kBq/mL. Besides, the “Proliferation assay on cancer cell lines by TTCs Default Pivot #3 IC50 [kBq/mL] C4-2 1000cells 375kBq/nmol (mean)” value in experiment [2] is 0.5 kBq/mL. Also, the “Proliferation assay on cancer cell lines by TTCs Default Pivot #3 IC50 [kBq/mL] 22Rv1 1000cells 375kBq/nmol (mean)” value in experiment [3] is 0.86 kBq/mL. Also, the “Proliferation assay on cancer cell lines by TTCs Default Pivot #3 IC50 [kBq/mL] LnCap 1000cells 375kBq/nmol (mean)” value in experiment [4] worked out at 0.04 kBq/mL. The compound further returned a T/Carea in experiment [6] (setting [9]) of 0.36.
